Results from US20120040956A1, “INHIBITORS OF HIF-1 PROTEIN ACCUMULATION” (INTERMED DISCOVERY GMBH, priority 2008, published 2012).

What was measured:
IKKy/NEMO = experiment: Cellular protein translation in 293T cells (anti-IKKy/NEMO immunoblotting); format: cell-based, human; details: 100 nM, 10 h and 24 h
Method: 293T cells were grown in the presence of the known translation inhibitor cycloheximide (10 μg/ml) and 100 nM of IMD-019064, IMD-026259 and IMD-026260 respectively. […] Cells were harvested after 10 h and 24 h and cell lysates were produced. Equal amounts of protein contained in the cell lysates were used for immunoblotting with anti-IKKy/NEMO antibodies as shown in FIG. 12. IKKy/NEMO is a constitutively expressed relatively labile protein. Thus successful inhibition of cellular protein translation should result in significant decline of anti-IKKy/NEMO signal.

HIF-1α protein = experiment: Hypoxia induced HIF-1α protein accumulation in 293T cells (immunoblotting); format: cell-based, human; details: 250 nM, 1 h preincubation, hypoxia 4 h, 1% O2
Method: Effects of IMD-026259, IMD-026260 and IMD-019064 on the stabilisation/accumulation of HIF-1α protein were investigated. 293T cells were preincubated with the indicated concentrations of all three compounds. After 1 h of pre-incubation, 293T cells were pre-incubated with the indicated concentrations of compounds and then further incubated under normoxic or hypoxic (4 h, 1% O2) conditions respectively. After lysis of cells in 1×SDS sample buffer and sonication, the samples were analyzed for HIF-1α abundance by immunoblotting.

NHDF (fibroblast) = NHDF (fibroblast) spheroid sprouting/scattering in 3D collagen gel; format: cell-based; details: Homo sapiens, 24 h, 3D collagen gel, read-out: IC50, NHDF fibroblast spheroid sprouting/scattering
Method: Prior application the stock solution [100 mM] of IMD-019064 was diluted 1:10 in DMSO and serially diluted in half logarithmic steps covering the concentration range from 10 mM to 1 μM using 100% DMSO. The final assay concentration ranged from 100 μM to 10 nM with a final DMSO concentration in the assay of 1%. The experiments were pursued in modification of the originally published protocol (Korff and Augustin: J Cell Sci 112: 3249-58, 1999). In brief, spheroids were prepared as described by Korff and Augustin: J Cell Biol 143: 1341-52, 1998) by pipetting 500 endothelial cells (EC) in a hanging drop on plastic dishes to allow overnight spheroid aggregation. […]
Plates were incubated at 37° C. for 24 hours and fixed by adding 4% paraformaldehyde. The cumulative sprout length of 10 randomly selected spheroids per data point was analyzed and the relative inhibition by the test compound determined. […] Sprouting intensity of EC and fibroblast spheroids was quantitated by an image analysis system using an inverted microscope and the digital imaging software Analysis 3.2 (Soft imaging system, Munster, Germany). […] The cumulative sprout length of 10 randomly selected spheroids per data point was analyzed according to the procedure used for the HUVEC experiment. […]

HIF-1 = experiment: HIF-1-dependent luciferase reporter gene activity in 293T cells under hypoxia; format: cell-based, human
Method: A HIF-1-dependent luciferase reporter gene was transfected into 293T cells by transfection with Rotifect™ (Trademarked by Carl Roth GmbH; Karlsruhe, Germany) or alternatively into Jurkat T cells by electroporation. Both cell lines were transfected with a HIF-1-dependent reporter gene. The next day, cells were preincubated for 1 h with the indicated, submicromolar concentrations of the test compounds and then incubated for further 8 h under normoxic or hypoxic (1% O2) conditions. After that, cells were harvested followed by the analysis of luciferase activity in a luminometer.
A HIF-1-dependent luciferase reporter gene was transfected into 293T cells. The next morning, cells were pretreated for 1 h with the indicated concentrations of compounds, followed by induction of hypoxia (hypoxia chamber) for 8 h. Subsequently cells were harvested and lyzed. Luciferase activity in cell extracts was measured in a luminometer (Duo Lumat LB 9507, Berthold) by injecting 20 microliter of assay buffer to 20 microliter of extract. Light emission was measured for 10 s, relative light units are given.
After transfection of 293T cells with a HIF-1-dependent luciferase reporter gene, cells were further incubated under normoxic or hypoxic (8 h, 1% O2) conditions as shown in FIG. 4. Effectively blocking concentrations of the IMDs (250 nM each) were added either 1 hour prior to hypoxia or 2 and 4 hours after induction of hypoxia.

CNCCOc1ccc2c(c1)OC1(c3ccc(Cl)cc3)C(c3ccccc3)CC(O)C21O (centres unmarked) [IMD-026260, (1,3a,8b)-3a-(4-chlorophenyl)-6-(2-(methylamino)ethoxy)-3-phenyl-2,3,3a,8b-tetrahydro-1H-benzo[d]cyclopenta[b]furan-1,8b-diol]
anti-IKKy/NEMO signal (cellular protein translation) (IKKy/NEMO): did not result in reduced anti-IKKy/NEMO signals | block of HIF-1α protein accumulation (HIF-1α protein): almost completely block | IC50 (NHDF (fibroblast)): 180 nM | time-dependency of inhibition of HIF-1-dependent luciferase expression (HIF-1; 250 nM, added 4 hours after induction of hypoxia (8 h, 1% O2)): able to inhibit HIF-1-dependent luciferase expression even when added 4 hours after hypoxic induction | IC50 (HIF-1; Homo sapiens, HEK-293T, 1 h pretreatment, hypoxia 8 h, read-out: IC50, HIF-1 luciferase inhibitory activity): 18 nM
